Assay results reported in patent US20030229002A1, “Use of agents that modulate PDE11A activity” (Pfizer Inc., priority 2002, published 2003).
Counter-ions that a name gives are not always drawn. Like-named read-outs stand apart in the source and are kept apart here.

Experiments:
epididymal spermatozoa = test: Capacitation analysis, chlorotetracycline (CTC) assay; assay type: cell-based, mouse; details: for number of capacitated sperm: FIG. 6, P<0.001; for % capacitated sperm: mean ± SEM
Text: Tissue sections were examined by immunohistochemistry (IHC) using a specific anti-PDE11 antibody. KO mice were generated using standard techniques, and PDE11 ablation confirmed by Southern blotting as well as reverse transcriptase polymerase chain reaction (RT-PCR) and IHC analysis of the testis. Fresh epididymal sperm were collected from adult mice and tested for capacitation (CP) using a chlorotetracycline assay before and after treatment with ATP—an inducer of CP.
For capacitation analyses, fresh epididymal spermatozoa were collected from adult (16 week-old) mice into Tyrodes media, and tested in triplicate using a chlorotetracycline (CTC) assay (Fraser, L. R. & Herod, J. E. Expression of capacitation-dependent changes in chlortetracycline fluorescence patterns in mouse spermatozoa requires a suitable glycolysable substrate. J. Reprod. Fert., 1990; 88(2): 611-21) both ± pre-treatment with ATP—an inducer of capacitation—to determine the functional state of the spermatozoa.
[…] The extent of capacitation was measured using chlorotetracycline (CTC), 750 μM for 15 min at 37° C. The patterns of CTC fluorescence were observed under microscopy (Reference: Fraser L R et al., 1990, J. Reprod. Fert.—see above). Patterns reflected the functional state of spermatozoa, i.e. capacitated, uncapacitated and acrosome loss.

recombinant human PDE9 = target: T1, recombinant human PDE9 (Homo sapiens, UniProt O76083); test: PDE9 inhibition, SPA-based assay; assay type: biochemical; details: Sf9 cells, geometric mean of at least 3 determinations
T1 construct: made in house; host or cells: Sf9 insect cells (baculovirus)
T1 sequence (O76083 whole entry): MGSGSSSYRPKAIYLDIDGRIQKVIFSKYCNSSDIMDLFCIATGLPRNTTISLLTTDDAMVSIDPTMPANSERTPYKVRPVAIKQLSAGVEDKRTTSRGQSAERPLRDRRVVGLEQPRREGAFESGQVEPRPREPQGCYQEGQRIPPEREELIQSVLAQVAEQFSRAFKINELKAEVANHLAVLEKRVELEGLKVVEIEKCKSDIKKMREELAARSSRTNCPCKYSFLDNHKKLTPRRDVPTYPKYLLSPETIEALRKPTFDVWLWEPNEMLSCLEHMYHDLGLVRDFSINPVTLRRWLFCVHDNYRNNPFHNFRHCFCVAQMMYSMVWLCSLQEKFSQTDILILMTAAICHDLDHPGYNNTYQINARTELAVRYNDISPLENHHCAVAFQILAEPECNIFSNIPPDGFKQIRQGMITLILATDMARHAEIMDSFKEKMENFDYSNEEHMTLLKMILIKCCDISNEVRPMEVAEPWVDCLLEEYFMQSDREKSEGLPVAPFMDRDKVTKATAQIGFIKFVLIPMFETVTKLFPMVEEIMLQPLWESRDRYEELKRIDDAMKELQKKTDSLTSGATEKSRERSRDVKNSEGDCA

recombinant human PDE11A [1] = target: T2, recombinant human PDE11A (Homo sapiens, UniProt Q9HCR9); test: PDE11A inhibition, SPA-based cGMP hydrolysis assay; assay type: biochemical
T2 construct: made in house; host or cells: Sf9 insect cells (baculovirus)
T2 sequence (Q9HCR9 445-933): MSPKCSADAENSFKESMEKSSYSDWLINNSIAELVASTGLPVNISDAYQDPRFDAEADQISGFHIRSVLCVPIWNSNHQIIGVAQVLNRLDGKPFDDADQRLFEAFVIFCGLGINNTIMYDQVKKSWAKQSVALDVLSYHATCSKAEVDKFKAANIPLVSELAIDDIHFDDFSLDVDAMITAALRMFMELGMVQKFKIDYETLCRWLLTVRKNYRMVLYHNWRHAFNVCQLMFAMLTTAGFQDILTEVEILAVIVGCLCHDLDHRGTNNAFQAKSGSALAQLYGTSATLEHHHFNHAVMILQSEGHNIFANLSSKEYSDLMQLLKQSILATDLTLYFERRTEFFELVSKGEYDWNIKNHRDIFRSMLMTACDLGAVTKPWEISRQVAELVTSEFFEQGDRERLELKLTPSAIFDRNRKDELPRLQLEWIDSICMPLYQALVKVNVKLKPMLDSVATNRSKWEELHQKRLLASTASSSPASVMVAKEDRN

PDE6 = target: T3, PDE6 (Bos taurus, UniProt P11541+P23439); test: PDE6 inhibition, SPA-based cGMP hydrolysis assay; assay type: biochemical; details: PDE6 isolated from bovine retina; geometric mean of at least 3 determinations
T3 construct: PDE6 was isolated from bovine retina; from tissue; host or cells: bovine retina
T3 sequence (P11541 2-856 limits assumed): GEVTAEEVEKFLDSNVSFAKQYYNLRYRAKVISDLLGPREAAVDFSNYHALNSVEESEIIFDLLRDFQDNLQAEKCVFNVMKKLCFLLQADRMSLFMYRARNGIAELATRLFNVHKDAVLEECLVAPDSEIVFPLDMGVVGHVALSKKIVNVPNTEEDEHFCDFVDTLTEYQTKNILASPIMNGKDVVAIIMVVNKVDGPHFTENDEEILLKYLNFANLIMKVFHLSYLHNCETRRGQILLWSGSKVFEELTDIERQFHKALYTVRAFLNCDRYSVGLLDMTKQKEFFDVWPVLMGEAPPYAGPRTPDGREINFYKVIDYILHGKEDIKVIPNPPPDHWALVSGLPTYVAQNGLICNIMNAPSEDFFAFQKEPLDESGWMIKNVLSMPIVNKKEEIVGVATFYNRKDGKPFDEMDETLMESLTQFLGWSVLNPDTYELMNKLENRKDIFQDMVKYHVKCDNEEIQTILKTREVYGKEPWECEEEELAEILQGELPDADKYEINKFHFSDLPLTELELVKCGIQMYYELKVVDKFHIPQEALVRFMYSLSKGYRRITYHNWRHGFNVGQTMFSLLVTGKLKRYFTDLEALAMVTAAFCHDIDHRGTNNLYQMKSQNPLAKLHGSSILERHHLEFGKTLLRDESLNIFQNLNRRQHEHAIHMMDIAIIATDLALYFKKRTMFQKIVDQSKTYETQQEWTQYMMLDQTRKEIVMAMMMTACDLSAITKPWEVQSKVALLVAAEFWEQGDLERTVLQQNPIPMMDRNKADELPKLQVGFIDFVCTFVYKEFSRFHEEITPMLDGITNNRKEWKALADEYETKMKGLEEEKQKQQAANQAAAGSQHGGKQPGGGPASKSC
T3 sequence (P23439 2-850 limits assumed): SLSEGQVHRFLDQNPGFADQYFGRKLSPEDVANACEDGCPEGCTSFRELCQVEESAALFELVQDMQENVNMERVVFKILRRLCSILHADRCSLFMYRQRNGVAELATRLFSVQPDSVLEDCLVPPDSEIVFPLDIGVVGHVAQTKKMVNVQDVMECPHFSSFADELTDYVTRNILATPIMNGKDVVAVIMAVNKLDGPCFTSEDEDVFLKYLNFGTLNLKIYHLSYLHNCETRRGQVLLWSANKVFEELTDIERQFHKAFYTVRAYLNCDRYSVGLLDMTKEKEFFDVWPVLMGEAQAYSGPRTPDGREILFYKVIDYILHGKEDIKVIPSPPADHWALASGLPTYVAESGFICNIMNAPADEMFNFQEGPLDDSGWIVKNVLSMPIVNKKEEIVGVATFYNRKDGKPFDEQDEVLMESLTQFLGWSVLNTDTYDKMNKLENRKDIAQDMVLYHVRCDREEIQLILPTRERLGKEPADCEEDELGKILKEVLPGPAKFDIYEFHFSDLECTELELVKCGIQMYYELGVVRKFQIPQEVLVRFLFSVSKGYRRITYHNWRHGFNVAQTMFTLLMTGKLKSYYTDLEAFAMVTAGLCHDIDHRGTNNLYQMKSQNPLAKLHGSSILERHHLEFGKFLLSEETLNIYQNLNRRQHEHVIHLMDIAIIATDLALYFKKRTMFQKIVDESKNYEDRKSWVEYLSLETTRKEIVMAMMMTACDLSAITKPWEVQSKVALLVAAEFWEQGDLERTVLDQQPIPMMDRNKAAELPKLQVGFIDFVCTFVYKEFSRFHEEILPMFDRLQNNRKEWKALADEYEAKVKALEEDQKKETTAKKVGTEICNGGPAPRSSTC

recombinant human PDE8 = target: T4, recombinant human PDE8 (Homo sapiens, UniProt O60658); test: PDE8 inhibition, SPA-based assay; assay type: biochemical; details: Sf9 cells, geometric mean of at least 3 determinations
T4 construct: made in house; host or cells: Sf9 insect cells (baculovirus)
T4 sequence (O60658 whole entry): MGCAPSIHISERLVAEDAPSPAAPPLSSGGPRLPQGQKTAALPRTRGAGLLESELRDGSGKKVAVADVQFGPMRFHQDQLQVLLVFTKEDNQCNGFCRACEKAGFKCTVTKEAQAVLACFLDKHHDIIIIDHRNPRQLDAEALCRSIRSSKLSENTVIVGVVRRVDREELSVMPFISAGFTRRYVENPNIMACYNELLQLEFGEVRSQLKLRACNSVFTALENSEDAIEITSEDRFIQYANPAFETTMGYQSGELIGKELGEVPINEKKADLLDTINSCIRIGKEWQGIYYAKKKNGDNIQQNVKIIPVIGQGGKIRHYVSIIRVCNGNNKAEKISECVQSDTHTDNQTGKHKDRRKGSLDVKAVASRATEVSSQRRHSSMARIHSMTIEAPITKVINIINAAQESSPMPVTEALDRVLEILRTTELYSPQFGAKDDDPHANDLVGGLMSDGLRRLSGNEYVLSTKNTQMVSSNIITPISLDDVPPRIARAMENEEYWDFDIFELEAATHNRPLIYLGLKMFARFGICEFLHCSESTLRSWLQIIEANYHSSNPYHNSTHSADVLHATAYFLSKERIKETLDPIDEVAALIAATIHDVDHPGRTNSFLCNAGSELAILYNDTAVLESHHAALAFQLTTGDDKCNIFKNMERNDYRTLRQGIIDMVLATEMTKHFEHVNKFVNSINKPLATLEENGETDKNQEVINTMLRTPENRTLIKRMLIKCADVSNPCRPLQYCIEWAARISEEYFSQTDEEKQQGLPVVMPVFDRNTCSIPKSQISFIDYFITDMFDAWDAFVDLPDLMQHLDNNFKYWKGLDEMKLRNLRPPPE

recombinant human PDE10 = recombinant human PDE10 (Homo sapiens, UniProt Q9Y233); test: PDE10 inhibition, SPA-based assay; assay type: biochemical; details: Sf9 cells, geometric mean of at least 3 determinations
Chain of recombinant human PDE10 (Q9Y233 290-1055 limits assumed): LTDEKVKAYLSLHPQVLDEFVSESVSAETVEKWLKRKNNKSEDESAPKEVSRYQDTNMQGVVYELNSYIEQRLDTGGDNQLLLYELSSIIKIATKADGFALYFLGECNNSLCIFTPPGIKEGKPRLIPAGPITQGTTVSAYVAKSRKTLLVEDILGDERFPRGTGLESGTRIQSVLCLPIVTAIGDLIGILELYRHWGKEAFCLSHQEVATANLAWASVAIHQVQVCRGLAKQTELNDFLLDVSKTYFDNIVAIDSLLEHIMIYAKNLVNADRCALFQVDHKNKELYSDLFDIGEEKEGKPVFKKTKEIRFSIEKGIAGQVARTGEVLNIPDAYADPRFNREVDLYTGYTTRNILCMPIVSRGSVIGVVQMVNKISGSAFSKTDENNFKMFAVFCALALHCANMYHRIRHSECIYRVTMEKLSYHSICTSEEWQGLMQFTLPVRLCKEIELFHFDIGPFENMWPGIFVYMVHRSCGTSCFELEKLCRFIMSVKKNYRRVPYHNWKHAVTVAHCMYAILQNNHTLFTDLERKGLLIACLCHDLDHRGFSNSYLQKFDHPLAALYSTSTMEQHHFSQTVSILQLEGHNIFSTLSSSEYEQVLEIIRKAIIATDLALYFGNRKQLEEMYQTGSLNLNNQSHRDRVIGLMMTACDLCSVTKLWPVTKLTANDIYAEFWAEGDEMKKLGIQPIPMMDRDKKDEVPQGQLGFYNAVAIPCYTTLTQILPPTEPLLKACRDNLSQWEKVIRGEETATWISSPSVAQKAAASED

recombinant human PDE7 = target: T5, recombinant human PDE7 (Homo sapiens, UniProt Q13946); test: PDE7 inhibition, SPA-based assay; assay type: biochemical; details: Sf9 cells, geometric mean of at least 3 determinations
T5 construct: made in house; host or cells: Sf9 insect cells (baculovirus)
T5 sequence (Q13946 whole entry): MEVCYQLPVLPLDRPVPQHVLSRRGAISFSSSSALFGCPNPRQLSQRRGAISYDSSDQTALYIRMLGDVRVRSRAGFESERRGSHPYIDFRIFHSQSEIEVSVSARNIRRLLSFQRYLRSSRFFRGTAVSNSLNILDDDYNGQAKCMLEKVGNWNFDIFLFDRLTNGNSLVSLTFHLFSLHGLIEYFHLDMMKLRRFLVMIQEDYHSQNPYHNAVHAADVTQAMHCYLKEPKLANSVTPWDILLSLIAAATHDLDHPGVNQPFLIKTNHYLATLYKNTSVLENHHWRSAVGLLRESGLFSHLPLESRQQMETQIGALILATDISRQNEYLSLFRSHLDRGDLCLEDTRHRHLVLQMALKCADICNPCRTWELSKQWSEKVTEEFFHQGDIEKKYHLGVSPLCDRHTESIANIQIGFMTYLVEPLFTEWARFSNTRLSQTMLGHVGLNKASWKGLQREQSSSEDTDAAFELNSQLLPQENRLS

recombinant human PDE11A [2] = target: T2, recombinant human PDE11A; details: substrate hydrolysis by recombinant human PDE11A; cited from earlier work

Nc1ncnc2c1ncn2[C@@H]1O[C@H](COP(=O)(O)OP(=O)(O)OP(=O)(O)O)[C@@H](O)[C@H]1O [ATP, adenosine-5′-triphosphate]
number of capacitated sperm (epididymal spermatozoa; ATP 1.0 mM, spermatozoa from PDE11 KO mice only): significantly increased
number of capacitated sperm (epididymal spermatozoa; ATP 2.5 mM, all murine spermatozoa samples, 1 hr incubation): significantly increased
number of capacitated murine spermatozoa (epididymal spermatozoa; PDE11 knockout and wild type samples, after 1 hr incubation): significantly increased
% capacitated sperm (epididymal spermatozoa; Table 2, PDE11 KO (−/−) mice, pre-treatment +1mM ATP, n = 3 animals): 45.9 ± 7.0%
% capacitated sperm (epididymal spermatozoa; Table 2, PDE11 KO (−/−) mice, pre-treatment +2.5 mM ATP, n = 3 animals): 73.9 ± 5.6%
% capacitated sperm (epididymal spermatozoa; Table 2, Wild-type (+/+) mice, pre-treatment +1mM ATP, n = 3 animals): 41.4 ± 8.2%
% capacitated sperm (epididymal spermatozoa; Table 2, Wild-type (+/+) mice, pre-treatment +2.5 mM ATP, n = 3 animals): 73.5 ± 5.1%
% capacitated sperm (epididymal spermatozoa; Table 3, PDE11 KO (−/−) mice, pre-treatment +1 mM ATP, n = 4): 48.4 ± 4.0%
% capacitated sperm (epididymal spermatozoa; Table 3, PDE11 KO (−/−) mice, pre-treatment +2.5 mM ATP, n = 4): 77.6 ± 3.8%
% capacitated sperm (epididymal spermatozoa; Table 3, Wild-type (+/+) mice, pre-treatment +1 mM ATP, n = 4): 47.1 ± 5.1%
% capacitated sperm (epididymal spermatozoa; Table 3, Wild-type (+/+) mice, pre-treatment +2.5 mM ATP, n = 4): 78.4 ± 3.3%

O=C(O)C1CCN(c2nc(NCc3ccc4c(c3)OCO4)c3cc(Cl)ccc3n2)CC1 [Compound E4021, 1-[4-[(1,3-benzodioxol-5-ylmethyl)amino]-6-chloro-2-quinazolinyl]-4-piperidinecarboxylic acid, monohydrochloride]
IC50 (recombinant human PDE9): > 100 µM
IC50 (recombinant human PDE11A [1]): 0.572 µM
IC50 (PDE6): 0.0047 µM
IC50 (recombinant human PDE8): > 100 µM
IC50 (recombinant human PDE10): > 100 µM
IC50 (recombinant human PDE7): > 100 µM

CN1CC(=O)N2[C@H](c3ccc4c(c3)OCO4)c3[nH]c4ccccc4c3C[C@@H]2C1=O [IC351, (6R,12aR)-6-(1,3-benzodioxol-5-yl)-2,3,6,7,12,12a-hexahydro-2-methyl-pyrazino[1′,2′: 1,6]pyrido[3,4-b]indole-1,4-dione]
IC50 (recombinant human PDE9): > 100 µM
IC50 (PDE6): 1.5 µM
IC50 (recombinant human PDE8): > 100 µM
IC50 (recombinant human PDE10): > 100 µM
IC50 (recombinant human PDE7): > 100 µM

CCCc1nn(C)c2c(=O)[nH]c(-c3cc(S(=O)(=O)N4CCN(C)CC4)ccc3OCC)nc12 [Sildenafil, 5-[2-ethoxy-5-(4-methyl-1-piperazinylsulphonyl)phenyl]-1-methyl-3-n-propyl-1,6-dihydro-7H-pyrazolo[4,3-d]pyrimidin-7-one]
IC50 (recombinant human PDE7): 19.7 µM

Clc1ccc2nc(-n3ccnc3)nc(NCc3ccccc3)c2c1 [UK-235,187, 6-Chloro-2-(1H-imidazol-1-yl)-N-(phenylmethyl)-,4-quinazolinamine, dihydrochloride]
IC50 (recombinant human PDE9): > 100 µM
IC50 (recombinant human PDE11A [1]; recombinant human, Sf9 cells, 69 nM cGMP, geometric mean of at least 3 determinations, read-out: IC50 PDE11A): 0.0466 µM
IC50 (PDE6): 1 µM
IC50 (recombinant human PDE10): > 100 µM

Nc1nc2c(ncn2[C@@H]2O[C@@H]3COP(=O)(O)O[C@H]3[C@H]2O)c(=O)[nH]1 [cGMP, cyclic guanine 3′,5′-monophosphate]
Km (recombinant human PDE11A [2]): 0.52 µM
